Measured values published in US10639371B2, “Thermoresponsive bioconjugates and their controlled delivery of cargo” (University of Delaware, priority 2015, dated 2020).
Where no end group is shown, it is not given here.

How the values were obtained:
[1] = CD refolding of CLP triple helix after quenching from 80° C. to 5° C.; type: physicochemical
Description: (§1) The ability of the CLP domain to form stable triple helix at physiological temperature while conjugated to the ELP was probed via circular dichroic spectroscopy (CD). The CD spectra of ELP-CLP at temperatures ranging from 5° C. to 80° C. […] Presumably, the collapse of the ELP domain at the elevated temperatures anchors the CLP and stabilizes it against unfolding, similar to our previously reported results for a polymer-conjugated CLP. The refolding of the CLP triple helix (FIGS. 2c and 2d) is likewise accelerated by the ELP anchoring of the CLP, owing to the increase in the local concentration of the CLP strands.

[2] = Circular dichroic spectroscopy (CD), thermal unfolding of CLP triple helix; type: physicochemical; conditions: first derivative of CD melting curve
Description: as §1

[3] = Dynamic light scattering (DLS) of assemblies upon heating; type: physicochemical; conditions: ELP alone, 1 mg/mL in water
Description: (A) ELP at 1 mg/mL in water; (B) ELP and CLP physical mixture at 0.5 mg/mL each in water.
The anticipated assembly of ELP-CLP nanostructures at physiologically relevant temperatures was confirmed via dynamic light scattering (DLS) (FIG. 3). In contrast to our expectations that nanoparticle formation would be triggered at near physiological temperature, however, the conjugates formed structures with hydrodynamic diameters (Dh) that ranged from approximately 50 to 200 nm at all temperatures between 4° C. and 65° C. (FIG. 3a), with a Dh of approximately 160 nm at 37° C. (FIG. 3b).
The anchoring of the ELP by the noncovalent formation of CLP triple helix, however, should offer unique and as yet unreported opportunities to reversibly modulate the transition temperatures of the ELP domain and to thus confer dual thermoresponsiveness to the conjugates. Indeed, after an initial increase in the Dh of the ELP-CLP nanoparticles with heating to 50° C. (FIG. 3), Dh begins to decrease once the sample is heated above this temperature, which is also approximately the melting temperature of the CLP (FIG. 2b). With additional heating to 80° C., the CLP unfolds completely (FIG. 2b), and the nanoparticles become fully solubilized as monomers with an average Dh of only 5.6 nm (FIG. 3b). […]

[4] = tested on: TNF-α production from RAW264.7 macrophages; experiment: TNF-α ELISA, RAW264.7 macrophages (inflammation response); type: cell-based
Description: Blank PBS was used as a negative control and lipopolysaccharide (LPS, 50 ng/mL) was used as a positive control; and (B) TNF-α production from RAW264.7 macrophages, treated with ELP-CLP nanoparticles at various concentrations. Blank PBS was used as a negative control and lipopolysaccharide (LPS, 50 ng/mL) was used as a positive control.
(B) Viability of NIH-3T3 fibroblasts (8,000 cells/cm^2 in DMEM/10% FBS); live/dead overlay shown. (C) TNF-α production from RAW264.7 murine macrophage-like cell culture (15,000 cells/cm^2 in DMEM/10% FBS) in the presence of various concentrations of CLP-ELP nanoparticles.
RAW264.7 murine macrophages were purchased from American Type Culture Collection (ATCC) and were cultured in DMEM (Sigma Aldrich) supplemented with 10% heat-inactivated fetal bovine serum (MediaTech), 10 mM HEPES (GIBCO), 55 μM β-mercaptoethanol (GIBCO), and 1% antibiotic/antimycotic (GIBCO) at 37° C. with 5% CO2. […] Cell metabolism post-treatment was assayed using PrestoBlue Viability Assay (Life Technologies), which provides a fluorescence measurement of the overall reductive capability of the cells, according to the manufacturer's instructions. […] After 2 h of incubation at 37° C., the medium was collected and analyzed using a PerkinElmer VICTOR3 1420 Multilabel Plate Reader (PerkinElmer, Waltham, Mass.) at excitation/emission wavelengths of 570 nm/615 nm. […]

## (GPO)4GFOGER(GPO)4GG [CLP]
[1]
  rate constant of triple helix refolding reaction: 1.14×10^7 M^−2·s^−1
[2]
  Tm (unfolding of CLP triple helix): ca. 50 °C

## (VPGFG)6 (VPGFGVPGFGVPGFGVPGFGVPGFGVPGFG; also: alkyne functionalization, site not given here) [ELP]
[3]
  inverse transition / aggregation upon heating: does not undergo a transition

## lipopolysaccharide [LPS]
[4]; FIG. 18C, 15,000 cells/cm^2, various concentrations
  TNF-α expression: elevated TNF-α expression
[4]; nanoparticles 50-1000 μg/mL, LPS 50 ng/mL, 8 h
  TNF-α expression: high levels of TNF-α expression
